The text below walks through data of patent US11680047B2, “Enhanced erythropoiesis and iron metabolism” (FibroGen, Inc., priority 2003, dated 2023).

For this assay, the system named is Ceruloplasmin. Description: Ceruloplasmin mRNA expression in mouse kidney (microarray). Format: in vivo. The conditions noted are these: single dose 100 mg/kg. The method, then: Compounds were generally administered orally by gavage or IV administration. Animals treated by oral gavage received a 4-10 ml/kg volume of either 0.5% carboxymethyl cellulose (CMC; Sigma-Aldrich, St. Louis Mo.) with or without 0.1% Polysorbate 80 (0 mg/kg/day) or varying doses of a compound of the present invention (e.g., a HIF prolyl hydroxylase inhibitor) in 0.5% CMC, with or without 0.1% Polysorbate 80, using various dosing regimens. Blood samples were collected at appropriate intervals during treatment from, e.g., tail vein (rats), or abdominal vein or cardiocentesis (mice or rats). Generally, animals were anesthetized with isoflurane and blood samples were collected into MICROTAINER serum separator tubes (Becton-Dickinson, Franklin Lakes N.J.). For measurement of serum components, the tubes were incubated at room temperature for 30 minutes, and then centrifuged at 8,000 rpm at 4° C. for 10 minutes. The serum fraction was then processed and analyzed for the presence of specific components, e.g., serum iron (assay performed by Quality Clinical Labs, Mountain View, Calif.). For determination of hematocrit, blood samples were collected into MICROTAINER EDTA-2K tubes (Becton-Dickinson); EDTA-blood was then drawn into 75 mm×1.1-1.2 mm I.D. capillary tubes (Chase Scientific Glass, Inc., Rockwood Tenn.) to approximately % length, one end of the tube was sealed with CRITOSEAL sealant (Sherwood Medical Company), and the tubes were centrifuged in a J-503M MICROHEMATOCRIT centrifuge (Jorgensen Laboratories, Inc., Loveland Colo.) at 12,000 rpm for 5 minutes. Hematocrit was read against a reader card. When indicated, complete blood count (CBC) analysis, including blood hemoglobin level, reticulocyte number, and hematocrit, was performed by Quality Clinical Labs (Mountain View, Calif.).
Swiss Webster male mice were treated as described above with a single dose of 0.5% CMC (Sigma-Aldrich) (0 mg/kg) or 100 mg/kg compound A. At 4, 8, 16, 24, 48, or 72 hours post-administration, animals were anesthetized, sacrificed, and tissue samples of kidney, liver, brain, lung, and heart were isolated and stored in RNALATER solution (Ambion) at −80° C. Alternatively, animals were treated to 4 consecutive daily doses of 0.5% CMC (0 mg/kg/day), 7.5 mg/ml compound A in 0.5% CMC (30 mg/kg/day), or 25 mg/ml compound A in 0.5% CMC (100 mg/kg/day). Four hours after administration of the final dose, animals were anesthetized, sacrificed, and approximately 150 mg of liver and each kidney were isolated and stored in RNALATER solution (Ambion) at −20° C.
RNA isolation was carried out using the following protocol. A section of each organ was diced, 875 μl of RLT buffer (RNEASY kit; Qiagen Inc., Valencia Calif.) was added, and the pieces were homogenized for about 20 seconds using a rotor-stator POLYTRON homogenizer (Kinematica, Inc., Cincinnati Ohio). The homogenate was micro-centrifuged for 3 minutes to pellet insoluble material, the supernatant was transferred to a new tube and RNA was isolated using an RNEASY kit (Qiagen) according to the manufacturer's instructions. The RNA was eluted into 80 μL of water and quantitated with RIBOGREEN reagent (Molecular Probes, Eugene Oreg.). The absorbance at 260 and 280 nm was measured to determine RNA purity and concentration.
Alternatively, tissue samples were diced and homogenized in TRIZOL reagent (Invitrogen Life Technologies, Carlsbad Calif.) using a rotor-stator POLYTRON homogenizer (Kinematica). Homogenates were brought to room temperature, 0.2 volumes chloroform was added, and samples were mixed vigorously. Mixtures were incubated at room temperature for several minutes and then were centrifuged at 12,000 g for 15 min at 4° C. The aqueous phase was collected and 0.5 volumes of isopropanol were added. Samples were mixed, incubated at room temperature for 10 minutes, and centrifuged for 10 min at 12,000 g at 4° C. […]

SMILES strings stand for the structures.

`O=C(O)CNC(=O)c1nc(Cl)c2ccccc2c1O` [Compound A, [(1-Chloro-4-hydroxy-isoquinoline-3-carbonyl)-amino]-acetic acid]: the “Ceruloplasmin (relative mRNA levels)” value is listed as 1.16 (4 hours); 1.39 (8 hours); 1.22 (16 hours); 2.45 (24 hours); 1.44 (48 hours); 2.10 (72 hours).
